From the NIST ThermoML archive (doi:10.1016/j.jct.2015.09.002)

Experiment: xn = mol fraction of the nth substance listed
Details: 93.2 kPa, Liquid, Vibrating tube method

CCCCN [1-butanamine] + CC#N
mass density [kg/m3]
Details | 293.15 K | 298.15 K | 303.15 K | 308.15 K
x2 = 0 | 737.12 | 732.33 | 727.51 | 722.66
x2 = 0.0102 | 737.48 | 732.7 | 727.88 | 723.03
x2 = 0.0229 | 737.89 | 733.1 | 728.28 | 723.42
x2 = 0.0481 | 738.62 | 733.83 | 729.01 | 724.14
x2 = 0.0616 | 738.99 | 734.2 | 729.37 | 724.51
x2 = 0.2006 | 742.87 | 738.04 | 733.19 | 728.3
x2 = 0.35 | 747.75 | 742.84 | 737.89 | 732.98
x2 = 0.4 | 749.52 | 744.61 | 739.64 | 734.69
x2 = 0.4503 | 751.36 | 746.43 | 741.47 | 736.49
x2 = 0.5007 | 753.36 | 748.41 | 743.43 | 738.41
x2 = 0.5489 | 755.38 | 750.41 | 745.4 | 740.35
x2 = 0.6002 | 757.66 | 752.67 | 747.61 | 742.54
x2 = 0.6492 | 759.99 | 754.96 | 749.88 | 744.78
x2 = 0.6998 | 762.57 | 757.51 | 752.4 | 747.24
x2 = 0.7488 | 765.21 | 760.11 | 754.97 | 749.77
x2 = 0.7997 | 768.18 | 763.02 | 757.82 | 752.57
x2 = 0.85 | 771.3 | 766.08 | 760.83 | 755.54
x2 = 0.9004 | 774.67 | 769.4 | 764.09 | 758.76
x2 = 0.9188 | 775.96 | 770.66 | 765.33 | 759.98
x2 = 0.9498 | 778.23 | 772.9 | 767.54 | 762.15
x2 = 0.96 | 779.01 | 773.67 | 768.29 | 762.89
x2 = 0.9694 | 779.73 | 774.38 | 769 | 763.59
x2 = 0.9804 | 780.56 | 775.21 | 769.81 | 764.38
x2 = 0.9892 | 781.24 | 775.87 | 770.46 | 765.03

CC(C)(C)N [2-methyl-2-propanamine] + CC#N
mass density [kg/m3]
Details | 293.15 K | 298.15 K | 303.15 K | 308.15 K
x2 = 0 | 692.06 | 686.65 | 681.18 | 675.66
x2 = 0.009 | 692.79 | 687.38 | 681.92 | 676.4
x2 = 0.0205 | 693.46 | 688.06 | 682.61 | 677.1
x2 = 0.0313 | 694.05 | 688.66 | 683.22 | 677.72
x2 = 0.0421 | 694.67 | 689.29 | 683.85 | 678.36
x2 = 0.0536 | 695.33 | 689.95 | 684.53 | 679.04
x2 = 0.0625 | 695.85 | 690.48 | 685.06 | 679.59
x2 = 0.0694 | 696.27 | 690.86 | 685.44 | 679.97
x2 = 0.0801 | 696.87 | 691.5 | 686.09 | 680.61
x2 = 0.0874 | 697.28 | 691.92 | 686.51 | 681.05
x2 = 0.1006 | 698.07 | 692.74 | 687.34 | 681.89
x2 = 0.1489 | 701.01 | 695.71 | 690.34 | 684.92
x2 = 0.2023 | 704.54 | 699.21 | 693.83 | 688.43
x2 = 0.2493 | 707.7 | 702.41 | 697.06 | 691.72
x2 = 0.3021 | 711.23 | 705.97 | 700.63 | 695.28
x2 = 0.3487 | 714.58 | 709.33 | 704 | 698.63
x2 = 0.3998 | 718.28 | 713.06 | 707.73 | 702.38
x2 = 0.4489 | 721.98 | 716.77 | 711.44 | 706.12
x2 = 0.501 | 726.15 | 720.91 | 715.64 | 710.33
x2 = 0.5485 | 730.26 | 725.04 | 719.77 | 714.47
x2 = 0.6009 | 735.01 | 729.79 | 724.53 | 719.22
x2 = 0.6494 | 739.58 | 734.35 | 729.08 | 723.75
x2 = 0.6932 | 743.94 | 738.74 | 733.46 | 728.14
x2 = 0.7494 | 749.81 | 744.57 | 739.28 | 733.95
x2 = 0.8001 | 755.58 | 750.29 | 744.99 | 739.64
x2 = 0.8497 | 761.5 | 756.2 | 750.87 | 745.51
x2 = 0.8984 | 767.7 | 762.38 | 757.02 | 751.64
x2 = 0.9093 | 769.13 | 763.81 | 758.46 | 753.06
x2 = 0.9202 | 770.57 | 765.25 | 759.88 | 754.48
x2 = 0.9292 | 771.83 | 766.5 | 761.11 | 755.72
x2 = 0.9401 | 773.34 | 768 | 762.61 | 757.2
x2 = 0.9501 | 774.73 | 769.38 | 763.99 | 758.56
x2 = 0.9599 | 776.15 | 770.78 | 765.38 | 759.96
x2 = 0.9699 | 777.57 | 772.2 | 766.79 | 761.36
x2 = 0.9795 | 778.96 | 773.59 | 768.17 | 762.72
x2 = 0.9892 | 780.39 | 775.01 | 769.59 | 764.14

CCCCNCCCC [dibutylamine] + CC#N
mass density [kg/m3]
Details | 293.15 K | 298.15 K | 303.15 K | 308.15 K
x2 = 0 | 759.7 | 755.61 | 751.5 | 747.38
x2 = 0.0695 | 760.49 | 756.33 | 752.17 | 748
x2 = 0.081 | 760.6 | 756.44 | 752.27 | 748.08
x2 = 0.1023 | 760.85 | 756.68 | 752.5 | 748.3
x2 = 0.1527 | 761.32 | 757.12 | 752.9 | 748.66
x2 = 0.2029 | 761.82 | 757.58 | 753.32 | 749.05
x2 = 0.2499 | 762.19 | 757.95 | 753.65 | 749.34
x2 = 0.2996 | 762.67 | 758.39 | 754.06 | 749.71
x2 = 0.3542 | 763.23 | 758.88 | 754.51 | 750.12
x2 = 0.3978 | 763.73 | 759.35 | 754.95 | 750.52
x2 = 0.47 | 764.62 | 760.17 | 755.7 | 751.19
x2 = 0.4987 | 764.98 | 760.52 | 756.02 | 751.49
x2 = 0.5498 | 765.74 | 761.23 | 756.67 | 752.09
x2 = 0.6001 | 766.63 | 762.05 | 757.43 | 752.78
x2 = 0.6499 | 767.62 | 762.97 | 758.29 | 753.59
x2 = 0.6991 | 768.71 | 763.99 | 759.24 | 754.46
x2 = 0.7496 | 770.07 | 765.28 | 760.44 | 755.59
x2 = 0.8 | 771.64 | 766.75 | 761.82 | 756.87
x2 = 0.8494 | 773.46 | 768.5 | 763.47 | 758.42
x2 = 0.8994 | 775.72 | 770.63 | 765.48 | 760.32
x2 = 0.9293 | 777.27 | 772.08 | 766.87 | 761.62
x2 = 0.9394 | 777.86 | 772.65 | 767.41 | 762.14
x2 = 0.9498 | 778.5 | 773.27 | 768 | 762.7
x2 = 0.9596 | 779.13 | 773.86 | 768.55 | 763.23
x2 = 0.9699 | 779.82 | 774.53 | 769.19 | 763.83
x2 = 0.9799 | 780.54 | 775.22 | 769.85 | 764.46
x2 = 0.9897 | 781.26 | 775.91 | 770.51 | 765.09
